Source: ChEMBL document CHEMBL3132769, “Fragment growing to retain or alter the selectivity of anchored kinase hinge-binding fragments” (Medchemcomm, 2014)

How the values were obtained:
[1] = target: RAF proto-oncogene serine/threonine-protein kinase (Homo sapiens) (UniProt P04049); test: Inhibition of human truncated c-Raf expressed in baculovirus assessed as substrate phosphorylation using fluorescence-labelled peptides as substrate at 0.06 uM after 90 mins by microfluidic peptide phosphorylation assay
[2] = target: Aurora kinase B (Homo sapiens) (UniProt Q96GD4); test: Inhibition of human full length AurB expressed in baculovirus assessed as substrate phosphorylation using fluorescence-labelled peptides as substrate at 70 uM after 90 mins by microfluidic peptide phosphorylation assay
[3] = target: Insulin receptor (Homo sapiens) (UniProt P06213); test: Inhibition of human INSR catalytic domain expressed in baculovirus assessed as substrate phosphorylation using fluorescence-labelled peptides as substrate at 0.2 uM after 90 mins by microfluidic peptide phosphorylation assay
[4] = target: Casein kinase I isoform alpha (Homo sapiens) (UniProt P48729); test: Inhibition of human full length CSNK1A1 expressed in baculovirus assessed as substrate phosphorylation using fluorescence-labelled peptides as substrate at 0.2 uM after 90 mins by microfluidic peptide phosphorylation assay
[5] = target: Fibroblast growth factor receptor 2 (Homo sapiens) (UniProt P21802); test: Inhibition of human FGFR2 catalytic domain expressed in baculovirus assessed as substrate phosphorylation using fluorescence-labelled peptides as substrate at 0.2 uM after 90 mins by microfluidic peptide phosphorylation assay
[6] = target: T1, Aurora kinase C (Homo sapiens) (UniProt Q9UQB9); test: Inhibition of human full length AurC expressed in baculovirus assessed as substrate phosphorylation using fluorescence-labelled peptides as substrate at 0.2 uM after 90 mins by microfluidic peptide phosphorylation assay
T1 sequence (whole entry): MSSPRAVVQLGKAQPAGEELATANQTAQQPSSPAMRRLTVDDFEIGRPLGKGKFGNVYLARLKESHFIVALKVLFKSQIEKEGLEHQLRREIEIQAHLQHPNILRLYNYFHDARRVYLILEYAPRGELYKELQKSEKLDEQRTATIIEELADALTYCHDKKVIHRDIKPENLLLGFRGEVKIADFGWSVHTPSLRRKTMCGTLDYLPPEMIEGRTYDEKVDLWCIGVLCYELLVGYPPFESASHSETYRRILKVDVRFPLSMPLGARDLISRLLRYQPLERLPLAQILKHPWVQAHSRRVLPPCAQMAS

[7] = target: T1, Aurora kinase C (Homo sapiens); test: Inhibition of human full length AurC expressed in baculovirus assessed as substrate phosphorylation using fluorescence-labelled peptides as substrate at 420 uM after 90 mins by microfluidic peptide phosphorylation assay
[8] = target: T2, cGMP-dependent protein kinase 1 (Homo sapiens) (UniProt Q13976); test: Inhibition of human full length PKG-1beta expressed in baculovirus assessed as substrate phosphorylation using fluorescence-labelled peptides as substrate at 9 uM after 90 mins by microfluidic peptide phosphorylation assay
T2 sequence (whole entry): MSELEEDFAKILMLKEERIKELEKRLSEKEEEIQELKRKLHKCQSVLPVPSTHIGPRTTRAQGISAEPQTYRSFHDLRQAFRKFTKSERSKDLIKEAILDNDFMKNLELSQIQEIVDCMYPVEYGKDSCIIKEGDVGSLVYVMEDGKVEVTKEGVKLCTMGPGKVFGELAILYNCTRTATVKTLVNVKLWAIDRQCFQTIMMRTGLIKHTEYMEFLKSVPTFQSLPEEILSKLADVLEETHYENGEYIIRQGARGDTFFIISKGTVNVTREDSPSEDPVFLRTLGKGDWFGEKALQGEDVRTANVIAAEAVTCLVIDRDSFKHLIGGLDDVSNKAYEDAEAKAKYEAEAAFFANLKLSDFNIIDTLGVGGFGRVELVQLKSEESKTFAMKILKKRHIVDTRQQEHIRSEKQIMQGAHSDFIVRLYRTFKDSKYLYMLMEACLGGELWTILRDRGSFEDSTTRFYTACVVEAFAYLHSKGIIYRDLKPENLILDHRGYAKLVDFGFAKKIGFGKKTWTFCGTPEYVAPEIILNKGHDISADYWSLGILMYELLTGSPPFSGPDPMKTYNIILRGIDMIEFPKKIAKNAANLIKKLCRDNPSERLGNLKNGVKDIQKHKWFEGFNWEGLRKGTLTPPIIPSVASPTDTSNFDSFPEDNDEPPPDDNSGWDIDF

[9] = target: RAC-alpha serine/threonine-protein kinase (Homo sapiens) (UniProt P31749); test: Inhibition of human AKT1 catalytic domain expressed in baculovirus assessed as substrate phosphorylation using fluorescence-labelled peptides as substrate at 2 uM after 90 mins by microfluidic peptide phosphorylation assay
[10] = target: T3, Inhibitor of nuclear factor kappa-B kinase subunit beta (Homo sapiens) (UniProt O14920); test: Inhibition of human full length IKK beta expressed in baculovirus assessed as substrate phosphorylation using fluorescence-labelled peptides as substrate at 2 uM after 90 mins by microfluidic peptide phosphorylation assay
T3 sequence (whole entry): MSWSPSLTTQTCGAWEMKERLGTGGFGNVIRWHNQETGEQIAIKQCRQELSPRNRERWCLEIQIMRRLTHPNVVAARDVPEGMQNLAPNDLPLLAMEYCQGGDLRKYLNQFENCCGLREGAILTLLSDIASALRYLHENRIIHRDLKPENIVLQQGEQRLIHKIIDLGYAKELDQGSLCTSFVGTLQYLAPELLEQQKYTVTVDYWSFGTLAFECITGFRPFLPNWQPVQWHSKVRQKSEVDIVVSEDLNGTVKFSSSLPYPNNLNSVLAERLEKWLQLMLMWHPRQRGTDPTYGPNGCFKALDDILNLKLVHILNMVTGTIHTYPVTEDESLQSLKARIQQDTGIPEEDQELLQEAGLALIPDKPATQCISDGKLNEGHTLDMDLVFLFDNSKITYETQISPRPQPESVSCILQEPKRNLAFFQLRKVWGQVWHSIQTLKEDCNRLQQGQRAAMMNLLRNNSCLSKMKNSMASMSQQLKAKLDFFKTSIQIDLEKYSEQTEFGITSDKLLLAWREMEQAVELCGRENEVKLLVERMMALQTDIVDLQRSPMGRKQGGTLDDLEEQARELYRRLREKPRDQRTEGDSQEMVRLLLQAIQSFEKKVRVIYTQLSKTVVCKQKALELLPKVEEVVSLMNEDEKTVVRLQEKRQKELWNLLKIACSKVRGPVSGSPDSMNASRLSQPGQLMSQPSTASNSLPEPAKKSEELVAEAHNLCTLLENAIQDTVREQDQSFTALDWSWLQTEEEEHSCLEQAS

[11] = target: Aurora kinase B (Homo sapiens) (UniProt Q96GD4); test: Inhibition of human full length AurB expressed in baculovirus assessed as substrate phosphorylation using fluorescence-labelled peptides as substrate at […] after 90 mins by microfluidic peptide phosphorylation assay
[12] = target: Protein kinase C theta type (Homo sapiens) (UniProt Q04759); test: Inhibition of human truncated PKC theta expressed in baculovirus assessed as substrate phosphorylation using fluorescence-labelled peptides as substrate at 8 uM after 90 mins by microfluidic peptide phosphorylation assay
[13] = target: Mitogen-activated protein kinase 1 (Homo sapiens) (UniProt P28482); test: Inhibition of human full length ERK2 expressed in Escherichia coli cell assessed as substrate phosphorylation using fluorescence-labelled peptides as substrate at 8 uM after 90 mins by microfluidic peptide phosphorylation assay
Chain of Mitogen-activated protein kinase 1 (Homo sapiens) (P28482 whole entry): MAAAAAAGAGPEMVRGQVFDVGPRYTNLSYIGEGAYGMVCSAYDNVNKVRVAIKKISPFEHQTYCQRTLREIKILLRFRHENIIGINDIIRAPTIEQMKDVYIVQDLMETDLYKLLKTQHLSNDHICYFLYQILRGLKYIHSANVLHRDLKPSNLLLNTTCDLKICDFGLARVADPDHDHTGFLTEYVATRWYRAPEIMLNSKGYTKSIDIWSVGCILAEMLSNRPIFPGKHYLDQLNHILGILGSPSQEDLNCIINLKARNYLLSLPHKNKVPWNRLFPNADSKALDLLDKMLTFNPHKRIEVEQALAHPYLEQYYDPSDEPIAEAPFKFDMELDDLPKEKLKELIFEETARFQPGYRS

Chain of Aurora kinase B (Homo sapiens) (Q96GD4 whole entry, the tested form may be a part): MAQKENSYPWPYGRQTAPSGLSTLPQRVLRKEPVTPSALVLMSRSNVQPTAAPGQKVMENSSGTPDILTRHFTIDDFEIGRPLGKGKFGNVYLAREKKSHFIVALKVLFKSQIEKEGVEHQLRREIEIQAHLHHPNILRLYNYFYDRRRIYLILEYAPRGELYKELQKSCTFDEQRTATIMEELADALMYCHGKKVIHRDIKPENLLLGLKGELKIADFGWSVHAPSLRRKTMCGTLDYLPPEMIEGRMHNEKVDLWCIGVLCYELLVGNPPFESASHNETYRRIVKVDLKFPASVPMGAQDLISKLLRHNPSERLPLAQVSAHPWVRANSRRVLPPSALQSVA
Chain of Fibroblast growth factor receptor 2 (Homo sapiens) (P21802 22-821 limits assumed): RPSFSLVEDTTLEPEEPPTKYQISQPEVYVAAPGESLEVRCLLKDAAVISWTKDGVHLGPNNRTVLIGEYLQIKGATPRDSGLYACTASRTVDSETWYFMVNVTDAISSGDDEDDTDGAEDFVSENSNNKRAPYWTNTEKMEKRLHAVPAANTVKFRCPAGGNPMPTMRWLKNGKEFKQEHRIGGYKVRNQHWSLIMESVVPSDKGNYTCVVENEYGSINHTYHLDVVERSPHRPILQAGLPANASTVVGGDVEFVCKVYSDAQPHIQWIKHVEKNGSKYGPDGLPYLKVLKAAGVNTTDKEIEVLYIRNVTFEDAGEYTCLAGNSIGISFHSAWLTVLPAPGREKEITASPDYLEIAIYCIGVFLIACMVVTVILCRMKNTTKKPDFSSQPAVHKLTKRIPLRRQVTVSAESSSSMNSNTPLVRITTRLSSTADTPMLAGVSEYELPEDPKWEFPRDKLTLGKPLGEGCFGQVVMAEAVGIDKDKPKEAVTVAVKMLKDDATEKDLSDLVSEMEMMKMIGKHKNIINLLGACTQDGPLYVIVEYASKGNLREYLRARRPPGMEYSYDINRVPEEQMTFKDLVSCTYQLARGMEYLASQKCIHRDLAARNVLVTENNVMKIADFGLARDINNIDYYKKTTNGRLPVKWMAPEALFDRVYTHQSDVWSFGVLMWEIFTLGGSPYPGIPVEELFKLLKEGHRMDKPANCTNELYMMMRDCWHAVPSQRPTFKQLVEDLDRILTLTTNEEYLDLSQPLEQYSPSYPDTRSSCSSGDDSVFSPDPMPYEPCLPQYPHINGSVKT
Chain of RAC-alpha serine/threonine-protein kinase (Homo sapiens) (P31749 whole entry, the tested form may be a part): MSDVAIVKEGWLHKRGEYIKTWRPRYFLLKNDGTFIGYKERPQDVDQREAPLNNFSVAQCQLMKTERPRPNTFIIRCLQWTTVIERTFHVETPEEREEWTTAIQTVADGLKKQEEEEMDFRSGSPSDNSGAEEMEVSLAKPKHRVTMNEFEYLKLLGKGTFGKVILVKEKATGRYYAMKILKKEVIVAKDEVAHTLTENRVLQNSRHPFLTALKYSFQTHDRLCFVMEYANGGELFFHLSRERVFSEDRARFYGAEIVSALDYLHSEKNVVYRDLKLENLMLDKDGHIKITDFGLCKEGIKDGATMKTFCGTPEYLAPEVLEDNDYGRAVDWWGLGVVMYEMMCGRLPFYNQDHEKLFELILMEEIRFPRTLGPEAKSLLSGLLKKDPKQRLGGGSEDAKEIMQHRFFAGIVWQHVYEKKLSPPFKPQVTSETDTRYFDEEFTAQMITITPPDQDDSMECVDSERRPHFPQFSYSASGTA
Chain of Protein kinase C theta type (Homo sapiens) (Q04759 whole entry, looked up, the tested form may be a part): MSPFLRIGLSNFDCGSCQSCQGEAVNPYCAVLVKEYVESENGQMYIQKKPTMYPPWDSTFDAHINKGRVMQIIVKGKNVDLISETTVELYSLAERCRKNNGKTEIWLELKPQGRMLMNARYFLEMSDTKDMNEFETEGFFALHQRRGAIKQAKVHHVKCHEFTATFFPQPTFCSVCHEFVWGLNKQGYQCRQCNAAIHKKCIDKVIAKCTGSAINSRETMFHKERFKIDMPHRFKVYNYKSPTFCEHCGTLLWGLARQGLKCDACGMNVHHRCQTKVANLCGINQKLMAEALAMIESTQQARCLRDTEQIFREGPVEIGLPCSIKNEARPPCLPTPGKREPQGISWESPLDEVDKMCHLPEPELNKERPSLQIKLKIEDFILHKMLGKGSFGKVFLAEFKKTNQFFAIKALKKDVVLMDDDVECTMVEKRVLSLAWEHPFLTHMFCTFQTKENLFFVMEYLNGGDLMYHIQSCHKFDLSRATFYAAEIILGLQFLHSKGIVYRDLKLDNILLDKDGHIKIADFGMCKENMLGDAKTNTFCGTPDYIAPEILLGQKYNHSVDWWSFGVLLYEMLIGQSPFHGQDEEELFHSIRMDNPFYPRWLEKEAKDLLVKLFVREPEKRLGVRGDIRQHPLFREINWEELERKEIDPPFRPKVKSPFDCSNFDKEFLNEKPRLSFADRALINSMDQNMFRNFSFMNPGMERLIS
Chain of Casein kinase I isoform alpha (Homo sapiens) (P48729 2-337 limits assumed): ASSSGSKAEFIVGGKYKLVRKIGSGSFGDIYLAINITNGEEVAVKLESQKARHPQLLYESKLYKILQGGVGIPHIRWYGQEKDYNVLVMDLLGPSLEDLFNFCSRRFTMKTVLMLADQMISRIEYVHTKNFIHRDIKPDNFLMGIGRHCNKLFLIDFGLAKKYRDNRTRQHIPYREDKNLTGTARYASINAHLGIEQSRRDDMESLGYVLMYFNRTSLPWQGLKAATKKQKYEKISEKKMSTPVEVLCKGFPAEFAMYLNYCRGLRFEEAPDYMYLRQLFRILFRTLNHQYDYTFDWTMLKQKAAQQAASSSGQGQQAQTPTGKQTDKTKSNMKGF
Chain of RAF proto-oncogene serine/threonine-protein kinase (Homo sapiens) (P04049 whole entry, the tested form may be a part): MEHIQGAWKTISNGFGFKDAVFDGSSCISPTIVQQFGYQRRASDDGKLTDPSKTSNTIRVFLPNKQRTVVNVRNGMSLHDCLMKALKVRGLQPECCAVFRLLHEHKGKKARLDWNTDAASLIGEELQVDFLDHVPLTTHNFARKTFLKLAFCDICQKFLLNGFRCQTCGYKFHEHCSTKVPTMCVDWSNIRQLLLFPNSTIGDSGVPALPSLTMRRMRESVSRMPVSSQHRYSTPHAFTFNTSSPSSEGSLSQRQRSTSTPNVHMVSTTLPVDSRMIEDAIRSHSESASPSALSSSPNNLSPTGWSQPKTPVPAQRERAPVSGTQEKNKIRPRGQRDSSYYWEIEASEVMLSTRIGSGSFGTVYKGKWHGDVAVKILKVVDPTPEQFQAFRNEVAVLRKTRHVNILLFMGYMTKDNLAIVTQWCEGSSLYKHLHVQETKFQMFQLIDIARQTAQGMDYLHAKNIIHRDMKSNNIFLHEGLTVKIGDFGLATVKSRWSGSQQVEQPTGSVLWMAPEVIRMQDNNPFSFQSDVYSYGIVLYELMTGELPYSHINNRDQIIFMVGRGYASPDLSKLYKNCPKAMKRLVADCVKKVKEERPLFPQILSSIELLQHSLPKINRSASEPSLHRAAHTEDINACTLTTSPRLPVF

NC1(Cc2ccc(Cl)cc2)CCN(c2ncnc3[nH]ccc23)CC1
inhibition [1]: 3.5%

CNCc1ccc(-c2ncnc3[nH]cnc23)cc1
inhibition [2]: 85%

Clc1ccc(C2(c3ccc(-c4ncnc5[nH]cnc45)cc3)CCNCC2)cc1
inhibition [3]: 11%
inhibition [4]: 4%
inhibition [5]: 4%
inhibition [6]: 73.5%

c1nc(N2CCOCC2)c2nc[nH]c2n1
inhibition [7]: 95.5%

NCC1CN(c2ncnc3[nH]c4cnccc4c23)CCO1 (stereo not drawn)
inhibition [8]: 12.5%

NC1CCN(c2ncnc3[nH]ccc23)CC1
inhibition [9]: 83%
inhibition [10]: 1%

COC(=O)c1cnc(Nc2cnc(C#N)cn2)cc1NCC1CCNCC1
inhibition [11]: 4%

NCC1CCN(c2ncnc3[nH]ccc23)CC1
inhibition [12]: 67.5%
inhibition [13]: 7.5%
